What was measured:
COKER COTTON = assay: Test F; format: in vivo, Gossypium hirsutum
From the text: (§1) Weed species were planted 3 or 4 per 15-cm diameter pot in Sassafras sandy loam (pH 6.8; 1% OM). Cotton was planted separately in the same sized pot. Postemergence plantings were made 12-16 days prior to treating so plants were in the 2- to 3-leaf stage (5-12 cm tall). Preemergence plantings were made the day before treating. Compounds were sprayed in a suitable non-phytotoxic solvent at 374 l/ha, then after 3 weeks of growth in a greenhouse, plant responses were visually rated on a percent scale where 0=no injury and 100=plant death.

LAMBSQUARTER = assay: Test F; format: in vivo, Chenopodium album
From the text: as §1

VELVETLEAF = assay: Test F; format: in vivo, Abutilon theophrasti
From the text: as §1

PRICKLY SIDA = assay: Test F; format: in vivo, Sida spinosa
From the text: as §1

SICKLEPOD = assay: Test F; format: in vivo, Cassia obtusifolia
From the text: as §1

COCKLEBUR = assay: Test F; format: in vivo, Xanthium pensylvanicum
From the text: as §1

CMN PURSLANE = assay: Test F; format: in vivo, Portulaca oleracea
From the text: as §1

IVY MORNINGGLORY = assay: Test F; format: in vivo, Ipomoea hederacea
From the text: as §1

GOOSEGRASS = assay: Test F; format: in vivo, Eleusine indica
From the text: as §1

BERMUDAGRASS = assay: Test F; format: in vivo, Cynodon dactylon
From the text: as §1

JOHNSONGRASS = assay: Test F; format: in vivo, Sorghum halepense
From the text: as §1

FALL PANICUM = assay: Test F; format: in vivo, Panicum dichotomiflorum
From the text: as §1

LARGE CRABGRASS = assay: Test F; format: in vivo, Digitaria sanguinalis
From the text: as §1

BRDLF SNGLGRASS = assay: Test F; format: in vivo, Brachiaria platyphylla
From the text: as §1

PURPLE NUTSEDGE = assay: Test F; format: in vivo, Cyperus rotundus
From the text: as §1

LADY SMARTWEED = assay: Test F; format: in vivo, Polygonum persicaria
From the text: as §1

GROUND CHERRY = assay: Test F; format: in vivo, Physalis heterophylla
From the text: as §1

RICE JAP TOL = assay: Test C rice paddy; format: in vivo, Japonica rice; settings: 21 days
How it was run: (§2)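 In this flooded-paddy assay, rice and weeds grew in saturated silt loam under greenhouse conditions, and the test compound was dosed into the 3 cm standing water shortly after flooding.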

RICE INDICA TOL = assay: Test C rice paddy; format: in vivo; settings: 21 days
How it was run: as §2

Work on `C=C(c1ccc(F)cc1)C(O)(Cn1cncn1)c1ccc(F)cc1F` (stereo not drawn) [Example 4, 2-(2,4-Difluorophenyl)-3-(4-fluorophenyl)-1-(1H-1,2,4-triazol-1-yl)-3-buten-2-ol] yielded a plant response (COKER COTTON; PREEMERGENCE 0032 GM/HA) of 0%, a plant response (COKER COTTON; PREEMERGENCE 0064 GM/HA) of 0% and a plant response (COKER COTTON; PREEMERGENCE 0125 GM/HA) of 0%. The plant response (COKER COTTON; PREEMERGENCE 0250 GM/HA) was 0%, the plant response (COKER COTTON; PREEMERGENCE 0500 GM/HA) was 0% and the plant response (LAMBSQUARTER; PREEMERGENCE 0032 GM/HA) was 0%. It also gave a plant response (LAMBSQUARTER; PREEMERGENCE 0064 GM/HA) of 20%, a plant response (LAMBSQUARTER; PREEMERGENCE 0125 GM/HA) of 20% and a plant response (LAMBSQUARTER; PREEMERGENCE 0250 GM/HA) of 60%. The plant response (LAMBSQUARTER; PREEMERGENCE 0500 GM/HA) was 70%, the plant response (VELVETLEAF; PREEMERGENCE 0032 GM/HA) was 0% and the plant response (VELVETLEAF; PREEMERGENCE 0064 GM/HA) was 0%. The plant response (VELVETLEAF; PREEMERGENCE 0125 GM/HA) was 0%, the plant response (VELVETLEAF; PREEMERGENCE 0250 GM/HA) was 0% and the plant response (VELVETLEAF; PREEMERGENCE 0500 GM/HA) was 30%. It also gave a plant response (PRICKLY SIDA; PREEMERGENCE 0032 GM/HA) of 0%, a plant response (PRICKLY SIDA; PREEMERGENCE 0064 GM/HA) of 0% and a plant response (PRICKLY SIDA; PREEMERGENCE 0125 GM/HA) of 0%. For the same compound, the plant response (PRICKLY SIDA; PREEMERGENCE 0250 GM/HA) was 100%, the plant response (PRICKLY SIDA; PREEMERGENCE 0500 GM/HA) was 90% and the plant response (SICKLEPOD; PREEMERGENCE 0032 GM/HA) was 0%. It also gave a plant response (SICKLEPOD; PREEMERGENCE 0064 GM/HA) of 0%, a plant response (SICKLEPOD; PREEMERGENCE 0125 GM/HA) of 0% and a plant response (SICKLEPOD; PREEMERGENCE 0250 GM/HA) of 0%. For the same compound, the plant response (SICKLEPOD; PREEMERGENCE 0500 GM/HA) was 0%, the plant response (COCKLEBUR; PREEMERGENCE 0032 GM/HA) was 0% and the plant response (COCKLEBUR; PREEMERGENCE 0064 GM/HA) was 0%. It also gave a plant response (COCKLEBUR; PREEMERGENCE 0125 GM/HA) of 0%, a plant response (COCKLEBUR; PREEMERGENCE 0250 GM/HA) of 0% and a plant response (COCKLEBUR; PREEMERGENCE 0500 GM/HA) of 0%. For the same compound, the plant response (CMN PURSLANE; PREEMERGENCE 0032 GM/HA) was 0%, the plant response (CMN PURSLANE; PREEMERGENCE 0064 GM/HA) was 20% and the plant response (CMN PURSLANE; PREEMERGENCE 0125 GM/HA) was 30%. It also gave a plant response (CMN PURSLANE; PREEMERGENCE 0250 GM/HA) of 30%, a plant response (CMN PURSLANE; PREEMERGENCE 0500 GM/HA) of 80% and a plant response (IVY MORNINGGLORY; PREEMERGENCE 0032 GM/HA) of 0%. The plant response (IVY MORNINGGLORY; PREEMERGENCE 0064 GM/HA) was 0%, the plant response (IVY MORNINGGLORY; PREEMERGENCE 0125 GM/HA) was 0% and the plant response (IVY MORNINGGLORY; PREEMERGENCE 0250 GM/HA) was 0%. For the same compound, the plant response (IVY MORNINGGLORY; PREEMERGENCE 0500 GM/HA) was 0%, the plant response (GOOSEGRASS; PREEMERGENCE 0032 GM/HA) was 80% and the plant response (GOOSEGRASS; PREEMERGENCE 0064 GM/HA) was 80%. The plant response (GOOSEGRASS; PREEMERGENCE 0125 GM/HA) was 100%, the plant response (GOOSEGRASS; PREEMERGENCE 0250 GM/HA) was 100% and the plant response (GOOSEGRASS; PREEMERGENCE 0500 GM/HA) was 100%. For the same compound, the plant response (BERMUDAGRASS; PREEMERGENCE 0032 GM/HA) was 0%, the plant response (BERMUDAGRASS; PREEMERGENCE 0064 GM/HA) was 20% and the plant response (BERMUDAGRASS; PREEMERGENCE 0125 GM/HA) was 95%. It also gave a plant response (BERMUDAGRASS; PREEMERGENCE 0250 GM/HA) of 100%, a plant response (BERMUDAGRASS; PREEMERGENCE 0500 GM/HA) of 100% and a plant response (JOHNSONGRASS; PREEMERGENCE 0032 GM/HA) of 0%. It also gave a plant response (JOHNSONGRASS; PREEMERGENCE 0064 GM/HA) of 0%, a plant response (JOHNSONGRASS; PREEMERGENCE 0125 GM/HA) of 20% and a plant response (JOHNSONGRASS; PREEMERGENCE 0250 GM/HA) of 50%. For the same compound, the plant response (JOHNSONGRASS; PREEMERGENCE 0500 GM/HA) was 50%, the plant response (FALL PANICUM; PREEMERGENCE 0032 GM/HA) was 90% and the plant response (FALL PANICUM; PREEMERGENCE 0064 GM/HA) was 90%. The plant response (FALL PANICUM; PREEMERGENCE 0125 GM/HA) was 90%, the plant response (FALL PANICUM; PREEMERGENCE 0250 GM/HA) was 100% and the plant response (FALL PANICUM; PREEMERGENCE 0500 GM/HA) was 100%. The plant response (LARGE CRABGRASS; PREEMERGENCE 0032 GM/HA) was 0%, the plant response (LARGE CRABGRASS; PREEMERGENCE 0064 GM/HA) was 20% and the plant response (LARGE CRABGRASS; PREEMERGENCE 0125 GM/HA) was 100%. It also gave a plant response (LARGE CRABGRASS; PREEMERGENCE 0250 GM/HA) of 100%, a plant response (LARGE CRABGRASS; PREEMERGENCE 0500 GM/HA) of 100% and a plant response (BRDLF SNGLGRASS; PREEMERGENCE 0032 GM/HA) of 0%. The plant response (BRDLF SNGLGRASS; PREEMERGENCE 0064 GM/HA) was 0%, the plant response (BRDLF SNGLGRASS; PREEMERGENCE 0125 GM/HA) was 0% and the plant response (BRDLF SNGLGRASS; PREEMERGENCE 0250 GM/HA) was 0%. The plant response (BRDLF SNGLGRASS; PREEMERGENCE 0500 GM/HA) was 30%, the plant response (PURPLE NUTSEDGE; PREEMERGENCE 0032 GM/HA) was 0% and the plant response (PURPLE NUTSEDGE; PREEMERGENCE 0064 GM/HA) was 0%. For the same compound, the plant response (PURPLE NUTSEDGE; PREEMERGENCE 0125 GM/HA) was 0%, the plant response (PURPLE NUTSEDGE; PREEMERGENCE 0250 GM/HA) was 0% and the plant response (PURPLE NUTSEDGE; PREEMERGENCE 0500 GM/HA) was 0%. It also gave a plant response (LADY SMARTWEED; PREEMERGENCE 0032 GM/HA) of 0%, a plant response (LADY SMARTWEED; PREEMERGENCE 0064 GM/HA) of 0% and a plant response (LADY SMARTWEED; PREEMERGENCE 0125 GM/HA) of 0%. The plant response (LADY SMARTWEED; PREEMERGENCE 0250 GM/HA) was 20%, the plant response (LADY SMARTWEED; PREEMERGENCE 0500 GM/HA) was 20% and the plant response (GROUND CHERRY; PREEMERGENCE 0032 GM/HA) was 0%. The plant response (GROUND CHERRY; PREEMERGENCE 0064 GM/HA) was 0%, the plant response (GROUND CHERRY; PREEMERGENCE 0125 GM/HA) was 0% and the plant response (GROUND CHERRY; PREEMERGENCE 0250 GM/HA) was 0%. For the same compound, the plant response (GROUND CHERRY; PREEMERGENCE 0500 GM/HA) was 0%.

Work on `C=C(c1ccccc1Cl)C(O)(Cn1cncn1)c1ccc(F)cc1F` (stereo not drawn) [Example 35] yielded a plant response (RICE JAP TOL; 0032 G/HA) of 0, a plant response (RICE JAP TOL; 0125 G/HA) of 20 and a plant response (RICE JAP TOL; 0500 G/HA) of 50. For the same compound, the plant response (RICE JAP TOL; 2000 G/HA) was 50, the plant response (RICE INDICA TOL; 0032 G/HA) was 0 and the plant response (RICE INDICA TOL; 0125 G/HA) was 55. For the same compound, the plant response (RICE INDICA TOL; 0500 G/HA) was 55 and the plant response (RICE INDICA TOL; 2000 G/HA) was 60.
